Measured values taken from publication PMC4887995, “Small molecule dual-inhibitors of TRPV4 and TRPA1 for attenuation of inflammation and pain” (Scientific Reports, 2016).
Entries after “also recorded” stand apart in the source; their conditions may differ.

How the values were obtained:
TRPV4 [1] = target: TRPV4 (Rattus norvegicus, UniProt Q9ERZ8); experiment: Ca++ imaging in primary astrocytes, GSK101 stimulation; format: cell-based; conditions: GSK101 5 nM
Description: (§1) Figure 4 Compound 16-8 inhibits TRPV4 in I˚ cells more potently than GSK205. […] Inset: Chondrocytes responding to activation with GSK101, fura-2 Ca^++ imaging; right-hand image taken at 5 sec after GSK101 application. […] (B) I˚ astrocytes (rat); dose-response comparison between 16-8 and GSK205 in response to 5 nM GSK101. Inset: Astrocytes responding to activation with GSK101; right-hand image taken at 5 sec after GSK101 application (mean ± SEM, n = 5 independent expts, n ≥ 200 cells/expt; *p < 0.05, t-test).
Astrocyte cultures were conducted following established protocols. Astrocytes were prepared from Sprague Dawley rat embryos (E18). Briefly, the isolated cortices were minced, and then incubated with trypsin and DNase. Dissociated cells were suspended in Dulbeccco’s Modified Eagle’s Medium (DMEM) supplemented with 10% fetal calf serum and penicillin/streptomycin (100 U/ml and 100 μg/ml, respectively). Thereafter, cell suspensions were plated in 75 cm^2 tissue culture flasks (10 × 10^6 cells/flask) which were pre-coated with poly-L-lysine (10 μg/ml). The cells were maintained in a 10%CO2 incubator at 37 °C.

[2] = system: caerulein-evoked acute pancreatitis; experiment: Caerulein-induced acute pancreatitis mouse model; format: in vivo; conditions: 10 mg/kg i.p., 30 min before caerulein
Description: C57BL/6J male mice 8–10 weeks of age were subjected to acute pancreatitis by intraperitoneal injections of supramaximal doses of caerulein (50 μg/kg) every hour for a total of 6 h, as previously described in[61]. Control animals received 25% DMSO-saline solution by intraperitoneal injection every hour for 6 h. Compound 16-8 was dissolved in this vehicle (10 mg/kg) and injected i.p. 30 min prior to the first injection of caerulein. Animals were sacrificed 1 h after the last injection. Blood was collected and pancreatic tissue was promptly isolated, weighed for determination of pancreas wet weight/body weight ratio. Samples of tissues were fixed overnight in 10% neutral-buffered formalin, paraffin embedded and H&E-stained, or pancreatic tissue was quickly frozen and assessed for myeloperoxidase (MPO) activity. Serum amylase, MPO and histologic evaluation were conducted as described previously. Assessment of nocifensive behavior[8]: Mice were housed in individual cages and video-recorded during the entire experiment. Two mice at a time were observed. Linear movement was measured as one event when mice passed through the median plane of the cage. Analysis began immediately after the first caerulein/vehicle injection and continued until the end of the experiment. Results were expressed as the sum of the movement events spanning the 6 h time-period following the first injection.

[3] = system: formalin-evoked trigeminal irritant pain (TRPA1 contribution); experiment: Trigeminal formalin irritant pain model, Trpv4-/- mice; format: in vivo, mouse; conditions: 10 mg/kg i.p.; for late-phase pain behavior: vs vehicle
Description: Figure 7 16-8 and 16-19 effectively attenuate formalin-evoked trigeminal irritant pain. (A) Time-course of nocifensive behavior in WT mice following whisker-pad injection of 4% formalin. The mice were pre-injected (i.p., 10 mg/kg; 15 min before formalin) with GSK205, 16-8 or 16-19. Note effective reduction of nocifensive behavior in the late “neural” phase by compounds 16-8, 16-19, not by GSK205. (B) Cumulative response binned into 3 phases: acute phase (0–5 min), interphase (5–15 min), and late “neural” phase (15–45 min). […] (C) As in (A), but also including Trpv4^−/− mice. Compounds were applied i.p. 15 min before formalin challenge, at 10 mg/kg except established TRPA1 blocker, A967079 (25 mg/kg). Previously-established attenuated nocifensive behavior in early and late phase in Trpv4^−/− mice was recapped, which was reduced further by TRPA1 blocker, A967079. (D) As in (B), plus inclusion of Trpv4^−/− mice. Robust effects of TRPA1-blocker, A967079, were mimicked equi-potently by 16-8 and 16-19 for early phase, and by 16-8 for late phase, partially by 16-19 for late phase. (A,C) show averaged behavioral metrics per time-point, bars in (B,D) represent mean ± SEM; for (D) ^*P < 0.05; ^#P < 0.005, one-way ANOVA; for all panels n = 5–8 mice/group. […] We observed significant residual irritant-pain behavior in all phases of the formalin model in Trpv4^−/− mice, consistent with our previous report[13] (Fig. 7C,D). […] A reference TRPA1-inhibitory compound, A967079, was used at 25 mg/kg body weight as a positive control to inhibit TRPA1, based on a previous report. Reduction of pain behavior in Trpv4^−/− mice was striking, more than 50% in the late neural phase. […] We conclude that compound 16-8 also functions as a potent TRPA1-inhibitor in an in-vivo irritant pain model specifically designed to assess the contribution of TRPA1 to trigeminal irritant pain, and at least as potent as an established reference TRPA1-antagonistic compound. Implementation of this model was conducted as described previously. Video-taped nocifensive behavior was assessed by investigators blinded to genotype and treatment.

TRPV4 [4] = target: T1, TRPV4 (Sus scrofa, UniProt B3VP30); experiment: Ca++ imaging in primary articular chondrocytes, GSK101 stimulation; format: cell-based, pig; conditions: GSK101 5 nM
T1 construct: primary cells, which express functional and biologically-relevant TRPV4 without directed over-expression of the channel; endogenous in cells; host or cells: primary porcine articular chondrocytes (femoral condyles)
T1 sequence (B3VP30 1-871): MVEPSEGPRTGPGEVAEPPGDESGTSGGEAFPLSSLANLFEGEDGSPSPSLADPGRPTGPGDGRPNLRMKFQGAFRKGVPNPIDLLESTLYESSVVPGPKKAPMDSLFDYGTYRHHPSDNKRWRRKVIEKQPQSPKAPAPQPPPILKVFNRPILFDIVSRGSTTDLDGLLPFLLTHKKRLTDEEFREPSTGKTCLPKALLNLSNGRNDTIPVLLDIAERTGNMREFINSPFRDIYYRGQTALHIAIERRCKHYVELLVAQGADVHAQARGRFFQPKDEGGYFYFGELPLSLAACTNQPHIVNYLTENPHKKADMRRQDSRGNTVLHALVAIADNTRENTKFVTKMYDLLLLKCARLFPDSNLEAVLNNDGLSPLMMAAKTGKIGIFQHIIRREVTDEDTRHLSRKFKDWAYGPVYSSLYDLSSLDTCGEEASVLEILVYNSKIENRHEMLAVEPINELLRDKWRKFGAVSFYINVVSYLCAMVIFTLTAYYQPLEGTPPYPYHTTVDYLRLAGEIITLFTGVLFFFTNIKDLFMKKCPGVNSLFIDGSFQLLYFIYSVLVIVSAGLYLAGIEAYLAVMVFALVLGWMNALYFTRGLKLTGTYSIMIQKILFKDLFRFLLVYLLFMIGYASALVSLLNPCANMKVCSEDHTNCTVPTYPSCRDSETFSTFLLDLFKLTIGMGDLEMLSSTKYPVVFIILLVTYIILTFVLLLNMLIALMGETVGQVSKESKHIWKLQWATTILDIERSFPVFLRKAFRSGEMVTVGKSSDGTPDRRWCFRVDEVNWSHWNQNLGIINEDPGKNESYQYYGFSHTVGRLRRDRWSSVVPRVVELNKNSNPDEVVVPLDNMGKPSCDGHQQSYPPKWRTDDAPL
Description: as §1
Primary porcine chondrocytes derived from femoral condyles of skeletally mature pigs were cultured and subjected to Ca^++ imaging as described previously.

[5] = Stability of compound in plasma; format: in vitro ADME; conditions: 4 h incubation in plasma at 37 °C

Sequence of TRPV4 (Rattus norvegicus, UniProt Q9ERZ8) (Q9ERZ8 whole entry): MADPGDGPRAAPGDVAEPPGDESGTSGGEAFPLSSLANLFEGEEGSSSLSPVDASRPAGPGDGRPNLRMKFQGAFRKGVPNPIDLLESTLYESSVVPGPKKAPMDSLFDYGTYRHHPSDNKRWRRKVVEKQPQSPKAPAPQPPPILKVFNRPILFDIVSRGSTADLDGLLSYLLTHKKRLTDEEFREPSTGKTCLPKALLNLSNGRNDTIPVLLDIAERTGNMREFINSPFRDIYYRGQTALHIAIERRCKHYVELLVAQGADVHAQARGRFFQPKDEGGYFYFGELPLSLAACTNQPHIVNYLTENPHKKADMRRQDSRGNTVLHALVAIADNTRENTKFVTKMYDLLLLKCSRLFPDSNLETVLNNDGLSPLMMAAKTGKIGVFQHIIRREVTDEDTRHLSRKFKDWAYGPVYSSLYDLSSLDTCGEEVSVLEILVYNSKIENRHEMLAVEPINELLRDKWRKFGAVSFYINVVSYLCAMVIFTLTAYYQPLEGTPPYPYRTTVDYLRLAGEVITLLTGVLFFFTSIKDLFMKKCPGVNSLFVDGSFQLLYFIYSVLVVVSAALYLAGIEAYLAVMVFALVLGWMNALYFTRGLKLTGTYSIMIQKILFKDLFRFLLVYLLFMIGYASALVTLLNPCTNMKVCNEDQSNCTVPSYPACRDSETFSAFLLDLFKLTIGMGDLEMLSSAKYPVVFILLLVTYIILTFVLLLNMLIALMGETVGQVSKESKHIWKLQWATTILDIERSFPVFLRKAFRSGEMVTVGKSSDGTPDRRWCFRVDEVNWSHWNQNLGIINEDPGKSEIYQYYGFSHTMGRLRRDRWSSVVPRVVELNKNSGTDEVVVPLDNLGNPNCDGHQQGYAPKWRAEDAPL

SMILES	potency vs GSK205, dose-response of peak ∆Ca++ (TRPV4 [1])	histopathological score for pancreas inflammation [2]	myelo-peroxidase (MPO) [2]	pain behavior (nocifensive behavior, 6 h test period) [2]	pancreatic edema [2]	immediate-phase pain behavior [3]	late-phase pain behavior [3]	potency vs GSK205, dose-response of peak ∆Ca++ (TRPV4 [4])	stability in plasma [5]
CN(CCc1ccc(Nc2nc(-c3ccccc3)cs2)cc1)Cc1ccccc1 [16-8]	significantly increased potency	significantly reduced; also recorded: significant reduction	significantly reduced	virtually eliminated; also recorded: significantly reduced	virtually eliminated	virtually eliminated	strikingly reduced	significantly more potent than GSK205	–
CCN(CCc1ccc(Nc2nc(-c3ccccc3)cs2)cc1)Cc1ccccc1 [16-19]	–	–	–	–	–	virtually eliminated	still significantly reduced	–	stable; also recorded: no loss of detectable compound
